The subject of one series is CCRF-CEM. The series can be described thus: cells. As to conditions: Homo sapiens, 144 h, read-out: Anticancer profileration EC50 CCRF-CEM. The protocol: (§1) Anticancer Activity: Alamar Blue Assay
Cells were seeded at 5000 cells/per well in 96-well tissue culture plate and incubated at 37° C./5% CO2. After 16-24 hours, fresh media was added to the wells. Compounds were then (1% DMSO conc.) added to the cells at 10 concentrations ranging from 10-0.0005 uM prepared in 3-fold serial dilutions. Cells were incubated for 68-72 h at 37° C./5% CO2. Alamar Blue™ reagent was added and incubated for 1-3 hours at 37° C./5% CO2. Plates were read on fluorescence reader at 540 nm excitation, 590 nm emission wave lengths.
(§2) As described above, compounds were tested for anticancer activities in different tumor cell lines and GI50 were determined.

Series [1] addresses HDAC6 human recombinant enzyme (Homo sapiens (Human), UniProt Q9UBN7). The series can be described thus: Histone Deacetylase Assay (BPS Biosciences), HDAC6. The format is biochemical. An excerpt:
Histone Deacetylase Assay (BPS Biosciences)
Histone deacetylase assay was done as per manufacturer's instructions.

A short description of series [2]: Metabolic stability in liver microsomes, MLM. Particulars: 1 μM, NADPH. (Liver microsomes are vesicles of endoplasmic reticulum, rich in cytochrome P450 enzymes.)
Method: (§4) The microsomal suspension was prepared by adding liver microsomes to 100 mM potassium phosphate buffer (pH7.4) to give a final protein concentration of 0.5 mg/mL. The stock solution of NCE (10 mM in DMSO) was added to the microsomes to provide a final concentration of 1 μM. […] Samples were vortexed and centrifuged at 5,000 rpm for 10 min to remove proteins. Supernatant were analyzed on LC-MS/MS.
A short description of series [3]: Metabolic stability in liver microsomes, HLM. As to conditions: 1 μM, NADPH.
Method: as §4
The target in a further series is LSD1 (Homo sapiens (Human), UniProt O60341). The series can be described thus: TR-FRET Assay for LSD1. As to conditions: read-out: LSD1 IC50. In general terms: Time-resolved FRET reads energy transfer from a long-lived donor to a nearby acceptor.
The next series deals with MDAMB231. The series can be described thus: cells. As to conditions: Homo sapiens, MDA-MB-231, 144 h, read-out: Anticancer profileration EC50 MDAMB231. The protocol:
as §1
(§3) Cells were seeded at 5000 cells/per well in 96-well tissue culture plate and incubated at 37° C./5% CO2. After 16-24 hours, fresh media was added to the wells. Compounds were then (1% DMSO conc.) added to the cells at 10 concentrations ranging from 10-0.0005 uM prepared in 3-fold serial dilutions. […] Alamar Blue™ reagent was added and incubated for 1-3 hours at 37° C./5% CO2. Plates were read on fluorescence reader at 540 nm excitation, 590 nm emission wave lengths.
as §2

A further series deals with A375. The series can be described thus: cells. As to conditions: Homo sapiens, A-375, 144 h, read-out: Anticancer profileration EC50 A375. How it is done: as §1, §3, §2
The next series relates to HEL-92.1.7. The series can be described thus: cells. Particulars: Homo sapiens, HEL 92.1.7, 144 h, read-out: Anticancer profileration EC50 HEL-92.1.7. How it is done:
as §1, §3, §2

The next series deals with OCI-AML3. The series can be described thus: cells. Particulars: Homo sapiens, OCI-AML-3, 144 h, read-out: Anticancer profileration EC50 OCI-AML3. The protocol:
as §1, §3, §2

Another series has as its system MV-4-11. The series can be described thus: cells. As to conditions: Homo sapiens, MV4-11, 144 h, read-out: Anticancer profileration EC50 MV-4-11. How it is done: as §1, §3, §2
For series [4] the following is noted: human, microsomes, 0.5 h, pH 7.4.
Method: as §4
For series [5] the following is noted: mouse, microsomes, 0.5 h, pH 7.4.
Method: as §4
The next series deals with MM1S. The series can be described thus: Anticancer activity: Alamar Blue assay, MM1S. Particulars: Homo sapiens, MM1.S, read-out: MM1S EC50. The series is classed as cell-based. (Alamar Blue is a resazurin reagent that responds to reducing activity.)

Where a name gives a salt, the structure may show the parent alone. Read-outs that look alike come from different tables or passages of the source.

Chain of HDAC6 human recombinant enzyme (Q9UBN7 whole entry): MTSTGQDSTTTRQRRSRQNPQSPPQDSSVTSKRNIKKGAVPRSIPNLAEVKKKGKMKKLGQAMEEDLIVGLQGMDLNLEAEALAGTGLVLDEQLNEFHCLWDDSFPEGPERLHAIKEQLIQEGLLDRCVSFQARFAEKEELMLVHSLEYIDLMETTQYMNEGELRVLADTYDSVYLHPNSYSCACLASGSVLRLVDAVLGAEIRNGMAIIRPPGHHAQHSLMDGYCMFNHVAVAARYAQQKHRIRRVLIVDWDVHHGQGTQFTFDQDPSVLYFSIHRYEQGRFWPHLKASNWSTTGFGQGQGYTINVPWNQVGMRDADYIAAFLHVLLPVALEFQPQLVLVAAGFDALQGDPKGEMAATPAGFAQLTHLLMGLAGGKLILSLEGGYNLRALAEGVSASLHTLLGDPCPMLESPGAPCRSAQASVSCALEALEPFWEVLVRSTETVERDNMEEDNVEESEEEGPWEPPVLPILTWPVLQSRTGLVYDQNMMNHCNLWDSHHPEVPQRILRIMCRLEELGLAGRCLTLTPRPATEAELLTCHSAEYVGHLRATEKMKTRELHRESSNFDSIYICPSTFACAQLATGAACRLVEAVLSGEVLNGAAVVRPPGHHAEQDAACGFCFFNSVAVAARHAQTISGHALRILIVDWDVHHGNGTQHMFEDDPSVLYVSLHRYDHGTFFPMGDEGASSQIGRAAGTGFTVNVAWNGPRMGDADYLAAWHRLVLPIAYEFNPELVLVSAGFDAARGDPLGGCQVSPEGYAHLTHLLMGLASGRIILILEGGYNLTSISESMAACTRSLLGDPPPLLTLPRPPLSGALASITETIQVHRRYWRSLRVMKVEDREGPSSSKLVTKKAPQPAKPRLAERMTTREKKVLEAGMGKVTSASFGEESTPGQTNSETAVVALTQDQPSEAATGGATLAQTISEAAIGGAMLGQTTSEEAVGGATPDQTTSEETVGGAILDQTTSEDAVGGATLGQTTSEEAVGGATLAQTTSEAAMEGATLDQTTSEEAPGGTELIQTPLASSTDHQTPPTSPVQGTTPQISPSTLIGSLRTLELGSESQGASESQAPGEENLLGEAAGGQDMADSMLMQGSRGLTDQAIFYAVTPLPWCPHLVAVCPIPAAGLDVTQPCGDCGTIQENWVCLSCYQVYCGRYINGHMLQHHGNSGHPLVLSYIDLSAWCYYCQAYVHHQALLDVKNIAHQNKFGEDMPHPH
Method for LSD1: TR-FRET Assay for LSD1 (Perkin Elmer)
Tranylcypromine (TCP), LSD1 inhibitor was procured from Selleckchem. […] Stop Solution containing 300 μM tranylcypromine in 1× LANCE Detection Buffer was added to the wells and incubated for 5 min at RT. Then, Detection mix containing 2 nM Eu-Ab and 50 nM ULight-Streptavidin in 1× LANCE Detection Buffer was prepared and added to the reaction mix. This mixture was incubated for 1 hour at room temperature.

Turning to `O=C(NO)c1ccc(CCCN2CCC(CNC3CC3c3ccc(OCc4ccc(F)cc4)cc3)CC2)cc1` (stereo not drawn) [Example 52, 4-(3-(4-(((2-(4-((4-fluorobenzyl)oxy)phenyl)cyclopropyl)amino)methyl)piperidin-1-yl)propyl)-N-hydroxybenzamide TFA Salt], the EC50 came out at 371 nM in the series with CCRF-CEM; 891 nM in the series on MDAMB231; 1700 nM with A375; 5 nM with HEL-92.1.7; 22 nM with OCI-AML3; 1 nM with MV-4-11. In addition, the IC50 amounted to 12 nM in [1] and 4 nM on LSD1. For the same molecule, the “Metabolic stability MLM % remaining in 30 min” value in [2] was found to be 56%. Also, in series [3], the “Metabolic stability HLM % remaining in 30 min” value stood at 79%.
Take `O=C(NO)c1ccc(CCCN2CC3(CC(NC4CC4c4ccccc4)C3)C2)cc1` (stereo not drawn) [Example 46, N-hydroxy-4-(3-(6-((2-phenylcyclopropyl)amino)-2-azaspiro[3.3]heptan-2-1)propyl)benzamide TFA Salt]: the IC50 in series [1] amounted to 477 nM; at LSD1 it was 26 nM. In addition, the “Metabolic stability HLM % remaining in 30 min” value in [4] is given as 54/47%. Also, in series [5], the “Metabolic stability MLM % remaining in 30 min” value is 54/47%. For the same molecule, the EC50 in the series on MM1S (MM1S cells) came out at 71 nM.
With `O=C(NO)c1ccc(CCCN2CCC(CNC3CC3c3ccc(F)cc3)CC2)cc1` (stereo not drawn) [Example 47, 4-[3-(4-{[2-(4-Fluoro-phenyl)-cyclopropylamino]-methyl}-piperidin-1-yl)-propyl]-N-hydroxy-benzamide TFA Salt], the EC50 in the series on CCRF-CEM came out at 1400 nM; with MDAMB231, 875 nM; in the series with A375, 3600 nM; in the series with HEL-92.1.7, 5 nM; in the series on OCI-AML3, 146 nM; with MV-4-11, 5 nM. The IC50 in series [1] is 51 nM; at LSD1, 6 nM. For the same molecule, the “Metabolic stability MLM % remaining in 30 min” value in [2] is 66%. For the same molecule, the “Metabolic stability HLM % remaining in 30 min” value in series [3] was determined as 54%.
For the molecule `O=C(NO)c1cnc(N2CCC(NC3CC3c3ccc(OCc4ccc(F)cc4)cc3)CC2)nc1` (stereo not drawn) [Example 12, 2-(4-((2-(4-((4-fluorobenzyl)oxy)phenyl)cyclopropyl)amino)piperidin-1-yl)-N-hydroxypyrimidine-5-carboxamide TFA Salt], the EC50 with CCRF-CEM turned out to be 375 nM; in the series with MM1S, 11 nM; in the series on MDAMB231, 1300 nM; with A375 it was 2800 nM; with HEL-92.1.7 it was 4 nM; with OCI-AML3, 41 nM. The EC50 in the series with MV-4-11 stood at 9 nM. Also, in series [2], the “Metabolic stability MLM % remaining in 30 min” value is on record as 85%. The “Metabolic stability HLM % remaining in 30 min” value in series [3] was determined as 95%.
With `O=C(NO)c1cnc(N2CCC(CNC3CC3c3ccc(F)cc3)CC2)nc1` (stereo not drawn) [Example 8, 2-(4-(((2-(4-fluorophenyl)cyclopropyl)amino)methyl)piperidin-1-yl)-N-hydroxypyrimidine-5-carboxamide TFA Salt], the EC50 in the series with CCRF-CEM amounted to 119 nM; in the series with MM1S, 7 nM; in the series with MDAMB231, 193 nM; in the series with A375 it was 698 nM; in the series on HEL-92.1.7, 42 nM; in the series with OCI-AML3, 46 nM. Further, the EC50 with MV-4-11 was found to be 48 nM. The IC50 in [1] came to 88 nM. In series [2], the “Metabolic stability MLM % remaining in 30 min” value is 52%. Also, the “Metabolic stability HLM % remaining in 30 min” value in [3] stood at 88%.
Take `O=C(/C=C/c1ccc(CNC2CC2c2ccc(-c3ccc(Cl)cc3)cc2)cc1)NO` (stereo not drawn) [Example 5, (E)-3-(4-(((2-(4′-chloro-[1,1′-biphenyl]-4-yl)cyclopropyl)amino)methyl)phenyl)-N-hydroxyacrylamide TFA Salt]: the EC50 with CCRF-CEM turned out to be 533 nM; in the series on MM1S, 88 nM; in the series on MDAMB231, 1600 nM; with A375, 2300 nM; in the series with HEL-92.1.7, 26 nM; in the series with OCI-AML3 it was 146 nM. In addition, the EC50 in the series with MV-4-11 was 54 nM. For the same molecule, in series [2], the “Metabolic stability MLM % remaining in 30 min” value is given as 59%. Moreover, the “Metabolic stability HLM % remaining in 30 min” value in series [3] came to 86%. The IC50 at LSD1 was determined as 49 nM.

Usually IC50 stands for the concentration that inhibits the measured activity by half.

(Values after patent US11352322B2, “Cyclopropyl-amide compounds as dual LSD1/HDAC inhibitors” (Jubilant Epicore LLC, priority 2016, dated 2022).)
